In patent US10328075B2, “Method of treatment and compounds for use therein” (Baker Heart and Diabetes Institute, priority 2015, dated 2019):
No end group written: not given here.

Experiments:
Type in all cases: in vivo, mouse
[1] = Plasma levels and pharmacokinetics in mice; settings: for Tmax / half-life: mouse, in vivo, Table 9, mice
[2] = system: myocardial I-R injury in C57BL/6 mice; test: Myocardial I-R in mice: cardiac inflammation after 48 h reperfusion; settings: for Effect on LV injury score / cell infiltration (H&E) / Effect on LV macrophage (CD68+) signal / Effect on LV neutrophil (Ly-6B.2) signal (in words) / Reduction of LV neutrophil content (Ly-6B.2): 60 min ischaemia, 48 h reperfusion
Experimental: (§1) Male C57BL/6 mice were breed and housed in the AMREP Animal Centre and maintained under a 12 h light/dark cycle. After anaesthesia (i.p., ketamine 80 mg/kg, xylazine 20 mg/kg and atropine 1.2 mg/kg), mice were randomly assigned to 24 h, 48 h and 7 days reperfusion groups and underwent reversible left arterial descending (LAD) ligation as described (Gao XM, 2011; JMCC, 50; Gao XM, 2000, JMCC). Following sedation, mice were intubated and ventilated (Harvard apparatus, MA, USA) with room air mixed with oxygen (tidal volume 0.25 mL, 150 breath/min), and placed on a heating pad. A left thoractomy will be made via the ˜third intercostal space, where the beating heart was located.
(§2) The LAD was reversibly ligated using 7-0 silk suture with a slipknot enclosing two releasing rings. Regional ischaemia was confirmed by pale colour of the ligated area. Air was then evacuated from the chest, the cavity was closed and normal respiration was restored. After 40-60 min of ischaemia, blood flow through the left coronary artery was re-established by releasing the slipknot. Sham-operated mice underwent identical surgical procedures except the coronary arteries were not ligated. Three cohorts of mice were scheduled. Cohort 1 was subjected to 40 min ischaemic-24 h reperfusion for the assessment of cardiac necrosis. Cohort 2 was subjected to 60 min occlusion with 48 h reperfusion for the quantification of cardiac and systemic inflammation. The last cohort was subjected to 7 d reperfusion and early cardiac fibrosis was assessed.
(§3) Treatment with study drugs: Animals were randomly assigned to different groups and all treatments were administrated 5 min prior to reperfusion of the LAD. The peptide Ac2-26 (1 mg kg^−1) (Chemieliva, Chongqing, China) and its vehicle (10% dimethyl sulfoxide (DMSO) in saline) were intravenously (i.v.) injected via the tail vein. […] Mice then received drug or vehicle injections daily until the experimental endpoint. The two different vehicles groups reflect different study drug solubility and administration routes.
Assessment of cardiac inflammation: LV tissue embedded in OCT compound following 60 min ischaemia and 48 h reperfusion were sectioned at 6 μm for immunofluorescent analysis. Sections were pre-incubated with 4% paraformaidehyde for 20 min and 10% normal goat serum for a further 30 min. Sections were then incubated at room temperature (RT) with either CD68+ primary antibody or Ly-6B.2 primary antibody (1:200, ABD Serotec, Raleigh, USA) for 1 h, followed 30 min incubation with the Alexa Fluor 546 secondary antibody (1:200, Invitrogen, Carlsbad, USA), to detect cardiac macrophage and neutrophil infiltration, respectively. Finally, sections were incubated with 0.001% Hoechst 33342 (Invitrogen, Melbourne, Australia) for 30 min, to elicit nuclear staining. Single images were photographed using a Nikon A1R confocal microscope (Nikon Instruments Inc., NY, USA) under 20× magnification, and 9×9 single images were then automatically stitched together using NIS-Elements AR software (version 4.10 for Windows, Nikon Instruments Inc., NY, USA) to form each whole LV section. The images for infarct area were captured under 40× magnification, and the stitched images were then analysed using Fiji software (version 1.48c for Max OS X, National Institutes of Health, USA). The threshold was set for each image, to enable optimal sensing of red fluorescence intensity above threshold, and the software then automatically quantified these red fluorescent signals.
Assessment of cardiac histology and fibrosis: LV hearts fixed in NBF after 40 min ischaema and 7 d reperfusion were embedded in paraffin by the Alfred Pathology Service (Melbourne, Australia) and sectioned at 4 μm with a Leica 2135 microtome (Leica Microsystems, Wetzlar, Germany). Sections were stained with haematoxylin and eosin (H&E) for assessment of myocardial morphology, or picrosirius red (0.1%, Fluka, Bucks, Switzerland; pH2) for cardiac collagen deposition. […]

[3] = system: myocardial I-R injury in C57BL/6 mice; test: Myocardial I-R in mice: cardiac fibrosis, apoptosis and remodelling after 7 days reperfusion; settings: for Effect on cardiac remodeling 7 days post I-R: 50 mg/kg i.p.
Experimental: as §1, §2, §3
Assessment of cardiac histology and fibrosis: LV hearts fixed in NBF after 40 min ischaema and 7 d reperfusion were embedded in paraffin by the Alfred Pathology Service (Melbourne, Australia) and sectioned at 4 μm with a Leica 2135 microtome (Leica Microsystems, Wetzlar, Germany). Sections were stained with haematoxylin and eosin (H&E) for assessment of myocardial morphology, or picrosirius red (0.1%, Fluka, Bucks, Switzerland; pH2) for cardiac collagen deposition. Images were taken at 1.25× to capture the whole LV. To examine the local infarct area, images were collected at 20× using the microscope (Olympus BX61, Olympus Inc., Ontario, Canada) and QCapture Pro software (version 5.1 for Windows, Media Cybernetic Inc., Maryland, USA). H&E images were scored blindly in random order on a scale of 1 to 5, based on intensity of blue staining of nuclei (1=least, 5=most, classified by independent observer). The area of picrosirius red staining (% LV area) was quantitatively measured using Image-Pro Plus software (Media Cybernetic Inc., Maryland, USA) for sets of LV slides from 48 h reperfusion and 7 d reperfusion study.
Animal Surgery: Adult C57BL/6 mice were randomly assigned to myocardial ischemia-reperfusion (I-R) injury or sham in vivo. Anesthetized mice (ketamine 80 mg/kg, xylazine 20 mg/kg and atropine 1.2 mg/kg, KXA, i.p.) underwent reversible left arterial descending (LAD) ligation as described (Gao et al. 2000 & Gao et al. 2011). Following sedation, mice were intubated and ventilated (Harvard apparatus, MA, USA) with room air mixed with oxygen (tidal volume 0.25 mL, 150 breaths/min), and placed on a heating pad. A left thoractomy was be made around the third intercostal space, where the beating heart was located. The LAD was reversibly ligated using 7-0 silk suture with a slipknot enclosing two releasing rings. Regional ischemia was confirmed by pale color of the ligated area. […]

Row | Compound | Tmax [1] | half-life [1] | Effect on LV injury score / cell infiltration (H&E) [2] | Effect on LV macrophage (CD68+) signal [2] | Effect on LV neutrophil (Ly-6B.2) signal (in words) ([2]; 50 mg/kg i.p., listed as Cmpd43, 50 mg/kg) | Effect on cardiac remodeling 7 days post I-R [3] | Effect on I-R-induced cardiac fibrosis (picrosirius red) ([3]; 7 days reperfusion) | Plasma level approximately 20 h after the final dose (in words) ([1]; mice subjected to 7 days reperfusion, 50 mg/kg/day i.p.) | Reduction of LV neutrophil content (Ly-6B.2) [2] | Effect on cardiac inflammation 48 h post I-R ([2]; 50 mg/kg i.p.) | Effect on LV neutrophil (Ly-6B.2) signal (in words) ([2]; 50 mg/kg i.p.) | Cardioprotection: Inflammation ([2]; Table 9) | Effect on LV apoptosis in the infarct area ([3]; 7 days reperfusion) | Cardioprotection: Adverse remodelling ([3]; Table 9)
1 | Cc1cc(Cc2cccnc2)c(=O)n(CC(=O)Nc2ccc(Cl)cc2)n1 [MIPS-0010396] | 1 h | 11.7 h |  |  |  |  |  |  |  |  |  |  |  | 
2 | CC(C)C1C(NC(=O)Nc2ccc(Cl)cc2)C(=O)N(c2ccccc2)N1C (centres unmarked) [BIDI-002] | 2 h | 3.8 h | significantly attenuated | tended to be reduced | absent | lacked these cardioprotective actions | persist | micromolar range |  |  |  |  |  | 
3 | Ac2-26: Annexin-A1 N-terminal peptide, peptide ANX-A1 mimetic (Ac-AMVSEFLKQAWFIENEEQEYVQTVK; UniProt P04083 2-26, looked up, fragment) |  |  | significantly inhibited | non-significant trend |  |  | tended to be inhibited |  | approximately 35% |  |  |  |  | 
4 | COc1cccc(Cc2cc(C)nn(C(C)C(=O)Nc3ccc(Br)cc3)c2=O)c1 (centres unmarked) [BIDI-001, N-(4-bromophenyl)-2-[5-(3-methoxybenzyl)-3-methyl-6-oxo-6H-pyridazin-1-yl]-propionamide] | 0.5 h | 7.6 h | not | tended to be reduced |  | reduces cardiac remodeling | absent |  | ~50% | reduces cardiac inflammation | significantly attenuated the Ly-6B.2 neutrophil signal by almost half | ↓↓ | significantly attenuated | ↓↓
